We go through 15 compounds from patent US12466831B2, “Substituted amino triazolopyrimidine and amino triazolopyrazine adenosine receptor antagonists, pharmaceutical compositions and their use” (Merck Sharp & Dohme LLC, priority 2018, dated 2025).

Experiment [1] addresses T1, human A2a adenosine receptor (Homo sapiens, UniProt P29274).
T1 construct: purchased Perkin Elmer RBHA2aM400UA; host or cells: HEK293 or CHO cells (recombinant expression)
Nature of the experiment: A2a binding affinity using radioligand binding, Method (A). Particulars: Method (A): [3H]SCH58261 filtration binding, membranes expressing human A2a. An excerpt: (§1) Method (A) describes the procedure used to measure A2a binding affinity using radioligand binding. Method (B) describes the procedure used to measure A2a binding affinity using SPA technology. The method used to measure A2b binding affinity is also described below. The method used to determine the A2a IC50 value reported for each compound in the table is indicated next to the reported value. The A2b IC50 value measured using the A2b binding affinity assay is shown in the table next to the compound under the corresponding A2a value.
The A2a receptor affinity binding assay measured the amount of binding of a tritiated ligand with high affinity for the A2a adenosine receptor to membranes made from HEK293 or CHO cells recombinantly expressing the human A2a adenosine receptor, in the presence of varying concentrations of a compound of the invention. The data were generated using either filtration binding or a homogenous scintillation proximity assay (SPA).
Method (A): Measurement of A2a Binding Affinity Using Radioligand Binding
148 μL (5 μg/mL) membranes (Perkin Elmer, Cat. No. RBHA2aM400UA) and 2 μL compounds of the invention to be tested (test compound) were transferred to individual wells of a 96-well polypropylene assay plate and incubated for 15 to 30 minutes at room temperature. [^3H] SCH58261 ((7-(2-phenylethyl)-5-amino-2-(2-furyl)-pyrazolo-[4,3-e]-1,2,4-triazolo[1,5-c]pyrimidine)) was diluted in assay buffer (50 mM Tris pH 7.4, 10 mM MgCl2, 0.005% Tween20) to a concentration of 4 nM and 50 μL transferred to each well of the assay plate. To define total and non-specific binding, wells containing 1% DMSO and 1 μM ZM241385 (Tocris Bioscience, Cat. No. 1036) respectively, were also included. The assay plate was incubated at room temperature for 60 minutes with agitation. Using a FilterMate Harvester® (Perkin Elmer), the contents of the assay plate were filtered through a UniFilter-96® PEI coated plate (Perkin Elmer Cat. No. 6005274 or 6005277). Filtering was achieved by aspirating the contents of the assay plate for 5 seconds, then washing and aspirating the contents three times with ice-cooled wash buffer (50 mM Tris-HCl pH 7.4, 150 mM NaCl) and allowing the vacuum manifold to dry the plate for 30 seconds. The filter plate was incubated for at least 1 hour at 55° C. and allowed to dry. The bottom of the filter plate was sealed with backing tape. 40 μL Ultima Gold™ (Perkin Elmer, Cat. No. 6013329) was added to each well of the filter plate and the top of the plate was sealed with TopSeal-A PLUS® clear plate seal (Perkin Elmer, Cat. No. 6050185). The plate was incubated for at least 20 minutes, and then the amount of radioactivity remaining in each well was determined using a TopCount® (Perkin Elmer) scintillation counter. After normalization to total and non-specific binding, the percent effect at each compound concentration was calculated. The plot of percent effect versus the log of compound concentration was analyzed electronically using a 4-parameter logistic fit based on the Levenberg-Marquardt algorithm to generate IC50 values.

In experiment [2] the target is T2, human A2b adenosine receptor (Homo sapiens, UniProt P29275).
T2 construct: purchased Perkin Elmer ES-013-C; host or cells: HEK293 cells recombinantly expressing the receptor; membranes made from them
T2 sequence (P29275 1-332): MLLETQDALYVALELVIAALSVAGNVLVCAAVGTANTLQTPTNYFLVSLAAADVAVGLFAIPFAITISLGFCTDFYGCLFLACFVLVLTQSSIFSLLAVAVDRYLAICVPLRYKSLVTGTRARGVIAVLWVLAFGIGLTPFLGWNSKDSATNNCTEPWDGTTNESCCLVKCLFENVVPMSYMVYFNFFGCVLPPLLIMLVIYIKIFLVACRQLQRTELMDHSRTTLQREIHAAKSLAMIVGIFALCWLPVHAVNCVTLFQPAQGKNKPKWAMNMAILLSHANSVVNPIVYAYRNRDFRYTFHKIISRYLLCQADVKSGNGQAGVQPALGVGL
The experiment can be described thus: A2b binding affinity, radioligand filtration binding assay. The note with it: tritiated proprietary A2b antagonist, HEK293 membranes expressing human A2b.
Source text: as §1
Measurement of A2b Binding Affinity
The reported affinity of the compounds of the invention for the human A2b adenosine receptor was determined experimentally using a radioligand filtration binding assay. This assay measures the amount of binding of a tritiated proprietary A2b receptor antagonist, in the presence and absence of a compound of the invention, to membranes made from HEK293 cells recombinantly expressing the human A2b adenosine receptor (Perkin Elmer, Cat. No. ES-013-C).
148 μL (135 μg/mL) membranes and 2 μL test compounds were transferred to individual wells of a 96-well polypropylene assay plate and incubated for 15 to 30 minutes at room temperature with agitation. Tritiated radioligand was diluted to a concentration of 14 nM in assay buffer (phosphate buffered saline without Magnesium and Calcium, pH 7.4; GE Healthcare Life Sciences, Cat. No. SH30256.01) and then 50 μL of the solution were transferred to each well of the assay plate. To define total and non-specific binding, wells containing 1% DMSO and 20 μM N-ethylcarboxamidoadenosine (Tocris Bioscience, Cat. No. 1691) respectively, were also included. The wells of the assay plate were incubated at room temperature for 60 minutes with agitation, then filtered using a FilterMate Harvester® (Perkin Elmer) or similar equipment through a UniFilter-96® PEI coated plate (Perkin Elmer Cat. No. 6005274 or 6005277). Filtering was achieved by aspirating the contents of the assay plate for 5 seconds, then washing and aspirating the contents three times with ice-cooled wash buffer (assay buffer supplemented with 0.0025% Brij58) and allowing the vacuum manifold to dry the plate for 30 seconds. The filter plate was incubated for at least 1 hour at 55° C. and allowed to dry. The bottom of the filter plate was then sealed with backing tape. 40 μL Ultima Gold™ (Perkin Elmer, Cat. No. 6013329) was added to each well of the filter plate and the top of the plate was sealed with TopSeal-A PLUS® clear plate seal (Perkin Elmer, Cat. No. 6050185). The plates were then incubated for at least 20 minutes, and then the amount of radioactivity remaining in each well was determined using a TopCount® (Perkin Elmer) scintillation counter. After normalization to total and non-specific binding, the percent effect at each compound concentration was calculated. The plot of percent effect versus the log of compound concentration was analyzed electronically using a 4-parameter logistic fit based on the Levenberg-Marquardt algorithm to generate IC50 values.

pIC50: −log10 of the molar value. Some results are limits rather than exact numbers.

T1 sequence (P29274 whole entry): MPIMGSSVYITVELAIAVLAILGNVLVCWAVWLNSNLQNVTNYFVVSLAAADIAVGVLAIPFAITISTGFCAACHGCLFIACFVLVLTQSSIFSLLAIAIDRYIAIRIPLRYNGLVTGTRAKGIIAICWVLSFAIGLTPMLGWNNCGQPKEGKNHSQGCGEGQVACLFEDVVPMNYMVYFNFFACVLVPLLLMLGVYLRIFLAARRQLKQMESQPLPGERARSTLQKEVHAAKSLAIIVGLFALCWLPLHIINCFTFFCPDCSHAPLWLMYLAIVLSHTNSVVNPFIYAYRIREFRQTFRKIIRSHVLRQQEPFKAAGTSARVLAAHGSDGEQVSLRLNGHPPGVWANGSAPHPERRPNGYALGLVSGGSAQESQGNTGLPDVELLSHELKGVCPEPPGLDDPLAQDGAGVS

Turning to `Cc1c(-c2ncco2)nc(N)n2nc([C@@H]3CCCN(c4cnn(C(C)C)c4)C3)nc12` [Example 3.12, (R)-2-(1-(1-isopropyl-1H-pyrazol-4-yl)piperidin-3-yl)-8-methyl-7-(oxazol-2-yl)-[1,2,4]triazolo[1,5-c]pyrimidin-5-amine], the pIC50 was 8.92 in experiment [1] and 6.78 in experiment [2].
The corresponding values for `Cc1cc(N2CCC[C@@H](c3nc4c(C)c(-c5ncco5)nc(N)n4n3)C2)cn(C(F)F)c1=O` [Example 3.14, (R)-5-(3-(5-amino-8-methyl-7-(oxazol-2-yl)-[1,2,4]triazolo[1,5-c]pyrimidin-2-yl)piperidin-1-yl)-1-(difluoromethyl)-3-methylpyridin-2(1H)-one] are 9.70 and 6.94.
The corresponding values for `Cc1c(-c2ncco2)nc(N)n2nc([C@H]3CC[C@@H](C)N(c4cnn(CC(C)(C)O)c4)C3)nc12` [Example 2.13, 1-(4-((2R,5S)-5-(5-amino-8-methyl-7-(oxazol-2-yl)-[1,2,4]triazolo[1,5-c]pyrimidin-2-yl)-2-methylpiperidin-1-yl)-1H-pyrazol-1-yl)-2-methylpropan-2-ol] are 7.32 and 5.88.
In the same order, the values of `Cc1nn(CC(C)(C)O)cc1N1CCC[C@@H](c2nc3c(C)c(-c4ncco4)nc(N)n3n2)C1` [Example 3.9, (R)-1-(4-(3-(5-amino-8-methyl-7-(oxazol-2-yl)-[1,2,4]triazolo[1,5-c]pyrimidin-2-yl)piperidin-1-yl)-3-methyl-1H-pyrazol-1-yl)-2-methylpropan-2-ol] are 10.00 and 6.26.
Take `Cc1c(-c2cccc(F)c2)nc(N)c2nc(C3CCCC(C)(O)C3)nn12` (single isomer, unassigned) [Example 8.10-2, (1R,3S or 1S,3R or 1R,3R or 1S,3S)-1-3-(8-amino-6-(3-fluorophenyl)-5-methyl-[1,2,4]triazolo[1,5-a]pyrazin-2-yl)-1-methylcyclohexan-1-ol]: the pIC50 in experiment [1] is 6.44; in experiment [2], 5.60.
`Cc1c(-c2ncco2)nc(N)n2nc([C@@H]3CCCN(c4cnn(CC(C)(C)O)c4C)C3)nc12` [Example 3.10, (R)-1-(4-(3-(5-amino-8-methyl-7-(oxazol-2-yl)-[1,2,4]triazolo[1,5-c]pyrimidin-2-yl)piperidin-1-yl)-5-methyl-1H-pyrazol-1-yl)-2-methylpropan-2-ol]: the pIC50 is 8.68 in experiment [1] and 6.27 in experiment [2].
In the case of `Cc1c(-c2cccc(F)c2)nc(Br)c2nc([C@H]3C[C@@H]3C(C)(C)O)nn12` (mixture of isomers) [Example 1.2, 2-((1S,2S and 1R,2R)-2-(8-bromo-6-(3-fluorophenyl)-5-methyl-[1,2,4]triazolo[1,5-a]pyrazin-2-yl)cyclopropyl)propan-2-ol], the pIC50 was 7.63 in experiment [1] and 6.69 in experiment [2].
In the same order, the values of `CNC(=O)C(C)(C)n1cc(N2CCC[C@@H](c3nc4c(C)c(-c5ncco5)nc(N)n4n3)C2)cn1` [Example 3.4, (R)-2-(4-(3-(5-amino-8-methyl-7-(oxazol-2-yl)-[1,2,4]triazolo[1,5-c]pyrimidin-2-yl)piperidin-1-yl)-1H-pyrazol-1-yl)-N,2-dimethylpropanamide] are 8.27 and 7.07.
In the same order, the values of `Cc1c(-c2ncco2)nc(N)c2nc(C3CCC(C)(O)C3)nn12` (single isomer, unassigned) [Example 8.6, (1R,3S and 1S,3R) or (1R,3R and 1S,3S)-(8-amino-5-methyl-6-(oxazol-2-yl)-[1,2,4]triazolo[1,5-a]pyrazin-2-yl)-1-methylcyclopentan-1-ol] are 8.19 and 6.85.
For `Cc1c(-c2ncco2)nc(N)c2nc(C3CCCC(C)(O)C3)nn12` (single isomer, unassigned) [Example 8.4, (1R,3S and 1S,3R) or (1R,3R and 1S,3S)-3-(8-amino-5-methyl-6-(oxazol-2-yl)-[1,2,4]triazolo[1,5-a]pyrazin-2-yl)-1-methylcyclohexan-1-ol], the results for the pIC50 in experiment [1] and in experiment [2] were 8.17 and 6.39, respectively.
The corresponding values for `Cc1c(-c2cccc(F)c2)nc(N)c2nc(C3CCCC(C)(O)C3)nn12` (single isomer, unassigned) [Example 8.11-2, (1R,3S or 1S,3R or 1R,3R or 1S,3S)-1-3-(8-amino-6-(3-fluorophenyl)-5-methyl-[1,2,4]triazolo[1,5-a]pyrazin-2-yl)-1-methylcyclohexan-1-ol] are 7.87 and 6.62.
On to `Cc1c(-c2cccc(F)c2)nc(N)c2nc(C3CCCC(C)(O)C3)nn12` (single isomer, unassigned) [Example 8.11-1, (1R,3S or 1S,3R or 1R,3R or 1S,3S)-1-3-(8-amino-6-(3-fluorophenyl)-5-methyl-[1,2,4]triazolo[1,5-a]pyrazin-2-yl)-1-methylcyclohexan-1-ol], for which the pIC50 was 6.88 in experiment [1] and at most 5.00 in experiment [2].
The corresponding values for `Cc1c(-c2ncco2)nc(N)n2nc([C@@H]3CCCN(c4cnn(C5CCOCC5)c4)C3)nc12` [Example 3.6, (R)-8-methyl-7-(oxazol-2-yl)-2-(1-(1-(tetrahydro-2H-pyran-4-yl)-1H-pyrazol-4-yl)piperidin-3-yl)-[1,2,4]triazolo[1,5-c]pyrimidin-5-amine] are 9.05 and 6.41.
The corresponding values for `Cc1c(-c2cc(F)ccc2F)nc(N)c2nc([C@@H]3CCCN(c4cnn(C)c4)C3)nn12` (single isomer, unassigned) [Example 2.6] are 6.66 and 6.36.
Turning to `CCn1cc(N2C[C@@H](c3nc4c(C)c(-c5ncco5)nc(N)n4n3)CC[C@H]2C)cn1` [Example 2.15, 2-((3S,6R)-1-(1-ethyl-1H-pyrazol-4-yl)-6-methylpiperidin-3-yl)-8-methyl-7-(oxazol-2-yl)-[1,2,4]triazolo[1,5-c]pyrimidin-5-amine], the figures for the pIC50 in experiment [1] and in experiment [2] were 7.70 and 5.62, respectively.

Broadly, the pIC50 is the negative decadic logarithm of the IC50, by convention in mol/L. Read a high pIC50 as a low IC50.
